Data as given in US20060177888A1, “Method for evaluating antioxidation capability of organism sample” (Chugai Seiyaku Kabushiki Kaisha, priority 2003, published 2006).

Assays:
[1] = system: cholesterol esters contained in plasma samples; assay: Amounts of CEOOHs and CEOHs produced in AAPH-initiated oxidation of plasma samples with added antioxidant; format: biochemical; settings: antioxidant added to human plasma at various concentrations five minutes before AAPH (10 mM), 37° C., 8 hours; endogenous α-tocopherol present; FIG. 4
Experimental: Assay reproducibility was tested for oxidation products of cholesterol esters contained in plasma samples obtained from a normal human subject. In this test, the cholesterol esters were regarded as oxidizable substrates.
Blood was collected in heparin from one normal human subject who gave informed consent to prepare a plasma pool.
1.1 mL portions of this plasma sample were put into nine test tubes and were frozen-stored at −80° C.
Three test tubes A, B and C containing the frozen plasma were warmed to 37° C. for 5 minutes to thaw the frozen plasma. After thawing, the test tubes were kept in ice.
10 μL of an aqueous solution of AAPH (available from Wako Pure Chemical Industries, Ltd.; Lot No. DWF 1183) was added to 300 μL of plasma removed from each test tube at an AAPH concentration of 10 mM. Then, they were warmed to 37° C. to initiate an oxidation reaction.
After maintaining at 37° C. for 8 hours, the 3 vessels each containing the reaction solution were immersed in ice to stop the reaction. 1 mL of a methanol containing 0.02% acetic acid and 5 mL of hexane were added to 100 μL of each reaction solution to extract lipids. 4 mL of the hexane extract removed from each reaction solution was concentrated on Speed Vac (AES1010 available from Thermo Savant), and each concentrate was dissolved in 200 μL of isopropyl alcohol. […]

[2] = reported in literature (Gotoh 1992; Noguchi 1997); cited from earlier work

SMILES	amounts of CEOOHs and CEOHs produced with the increase of the concentration of the antioxidant [1]	rate of the reaction with linoleic acid peroxy radicals, expressed as ratio to the rate of the reaction of α-tocopherol [2]
CCCCCC1(CCCCC)Cc2c(cc(C(C)(C)C)c(O)c2C(C)(C)C)O1 [BO-653, 4,6-di-t-butyl-5-hydroxy-2,2-di-n-pentyl-2,3-dihydrobenzofuran]	significantly decrease	1/2
Cc1c(C)c2c(c(C)c1O)CC[C@@](C)(CCC[C@H](C)CCC[C@H](C)CCCC(C)C)O2 [α-tocopherol]	significantly increase	
